In PMC11277489, “Novel Piperazine Derivatives of Vindoline as Anticancer Agents” (International Journal of Molecular Sciences, 2024):
Read-outs that look alike come from different tables or passages of the source.

Columns and labels:
[1] = system: SW-620; test: NCI60 one-dose screen (10 μM), Colon Cancer; type: cell-based; conditions: Homo sapiens
[2] = system: HT29; test: NCI60 one-dose screen (10 μM), Colon Cancer; type: cell-based; conditions: Homo sapiens
[3] = system: SF-268; test: NCI60 one-dose screen (10 μM), CNS Cancer; type: cell-based; conditions: Homo sapiens
[4] = system: SK-MEL-2; test: NCI60 one-dose screen (10 μM), Melanoma; type: cell-based; conditions: Homo sapiens
[5] = system: 786–0; test: NCI60 one-dose screen (10 μM), Renal Cancer; type: cell-based; conditions: Homo sapiens
[6] = system: SK-MEL-5; test: NCI60 one-dose screen (10 μM), Melanoma; type: cell-based, human; conditions: Homo sapiens
[7] = system: NCI-H460; test: NCI60 one-dose screen (10 μM), Non-small Cell Lung Cancer; type: cell-based; conditions: Homo sapiens
[8] = system: SK-MEL-28; test: NCI60 one-dose screen (10 μM), Melanoma; type: cell-based; conditions: Homo sapiens
[9] = system: MOLT-4; test: NCI60 one-dose screen (10 μM), Leukemia; type: cell-based, human; conditions: Homo sapiens
[10] = system: TK-10; test: NCI60 one-dose screen (10 μM), Renal Cancer; type: cell-based; conditions: Homo sapiens
[11] = system: CCRF-CEM; test: NCI60 one-dose screen (10 μM), Leukemia; type: cell-based; conditions: Homo sapiens, read-out: Growth percent rate
[12] = system: MDA-MB-435; test: NCI60 one-dose screen (10 μM), Melanoma; type: cell-based; conditions: Homo sapiens
[13] = system: U251; test: NCI60 one-dose screen (10 μM), CNS Cancer; type: cell-based; conditions: Homo sapiens
[14] = system: LOX IMVI; test: NCI60 one-dose screen (10 μM), Melanoma; type: cell-based, human; conditions: Homo sapiens, LOX IMVI, read-out: Growth percent rate
[15] = system: SF-539; test: NCI60 one-dose screen (10 μM), CNS Cancer; type: cell-based, human; conditions: Homo sapiens
[16] = system: 60 human tumor cell lines (NCI60); test: NCI60 one-dose screen (10 μM), whole panel; type: cell-based; conditions: for activity at 10 µM: read-out: Growth percent rate, Mean
[17] = system: SNB-19; test: NCI60 one-dose screen (10 μM), CNS Cancer; type: cell-based; conditions: Homo sapiens
[18] = system: DU-145; test: NCI60 one-dose screen (10 μM), Prostate Cancer; type: cell-based; conditions: Homo sapiens
[19] = system: HOP-62; test: NCI60 one-dose screen (10 μM), Non-small Cell Lung Cancer; type: cell-based; conditions: Homo sapiens
[20] = system: HL-60(TB); test: NCI60 one-dose screen (10 μM), Leukemia; type: cell-based; conditions: Homo sapiens
[21] = system: K-562; test: NCI60 one-dose screen (10 μM), Leukemia; type: cell-based; conditions: Homo sapiens
[22] = system: A498; test: NCI60 one-dose screen (10 μM), Renal Cancer; type: cell-based; conditions: Homo sapiens
[23] = system: UACC-257; test: NCI60 one-dose screen (10 μM), Melanoma; type: cell-based; conditions: Homo sapiens
[24] = system: M14; test: NCI60 one-dose screen (10 μM), Melanoma; type: cell-based; conditions: Homo sapiens
[25] = system: RPMI-8226; test: NCI60 one-dose screen (10 μM), Leukemia; type: cell-based; conditions: Homo sapiens
[26] = system: CAKI-1; test: NCI60 one-dose screen (10 μM), Renal Cancer; type: cell-based; conditions: Homo sapiens
[27] = system: A549/ATCC; test: NCI60 one-dose screen (10 μM), Non-small Cell Lung Cancer; type: cell-based; conditions: Homo sapiens
[28] = system: NCI-H322M; test: as above; type: cell-based; conditions: Homo sapiens, read-out: Growth percent rate
[29] = system: MCF7; test: NCI60 one-dose screen (10 μM), Breast Cancer; type: cell-based; conditions: Homo sapiens
[30] = system: ACHN; test: NCI60 one-dose screen (10 μM), Renal Cancer; type: cell-based; conditions: Homo sapiens, read-out: Growth percent rate
[31] = system: RXF 393; test: NCI60 one-dose screen (10 μM), Renal Cancer; type: cell-based, human; conditions: Homo sapiens
[32] = system: MALME-3M; test: NCI60 one-dose screen (10 μM), Melanoma; type: cell-based; conditions: Homo sapiens, read-out: Growth percent rate
[33] = system: KM12; test: NCI60 one-dose screen (10 μM), Colon Cancer; type: cell-based, human; conditions: Homo sapiens
[34] = system: SF-295; test: NCI60 one-dose screen (10 μM), CNS Cancer; type: cell-based; conditions: Homo sapiens
[35] = system: OVCAR-4; test: NCI60 one-dose screen (10 μM), Ovarian Cancer; type: cell-based; conditions: Homo sapiens
[36] = system: SNB-75; test: NCI60 one-dose screen (10 μM), CNS Cancer; type: cell-based, human; conditions: Homo sapiens
[37] = system: HCT-15; test: NCI60 one-dose screen (10 μM), Colon Cancer; type: cell-based; conditions: Homo sapiens
[38] = system: NCI-H23; test: NCI60 one-dose screen (10 μM), Non-small Cell Lung Cancer; type: cell-based; conditions: Homo sapiens
[39] = system: IGROV1; test: NCI60 one-dose screen (10 μM), Ovarian Cancer; type: cell-based; conditions: Homo sapiens
[40] = system: OVCAR-8; test: NCI60 one-dose screen (10 μM), Ovarian Cancer; type: cell-based; conditions: Homo sapiens
[41] = system: COLO 205; test: NCI60 one-dose screen (10 μM), Colon Cancer; type: cell-based, human; conditions: Homo sapiens

## CCC12C=CCN3CCC4(c5cc(NC(=O)CN6CCN(Cc7ccc(C(F)(F)F)cc7)CC6)c(OC)cc5N(C)C4C(O)(C(=O)OC)C1OC(C)=O)C32 (centres unmarked) [Compound 18]
[1]; SW-620, read-out: Growth percent rate
  activity at 10 µM: 87%
[2]; HT-29, read-out: Growth percent rate
  activity at 10 µM: 39.3%
[3]; SF-268, read-out: Growth percent rate
  activity at 10 µM: 65.2%
[4]; SK-MEL-2, read-out: Growth percent rate
  activity at 10 µM: 72.9%
[5]; 786-0, read-out: Growth percent rate
  activity at 10 µM: 75.5%
[6]; SK-MEL-5, read-out: Growth percent rate
  activity at 10 µM: 21.2%
[7]; NCI-H460, read-out: Growth percent rate
  activity at 10 µM: 62.1%
[8]; SK-MEL-28, read-out: Growth percent rate
  activity at 10 µM: 90.8%
[9]; MOLT-4, read-out: Growth percent rate
  activity at 10 µM: 16.7%
[10]; TK-10, read-out: Growth percent rate
  activity at 10 µM: 81.5%
[11]
  activity at 10 µM: 39.4%
[12]; MDA-MB-435, read-out: Growth percent rate
  activity at 10 µM: 63.9%
[13]; U-251, read-out: Growth percent rate
  activity at 10 µM: 74.8%
[14]
  activity at 10 µM: 58.4%
[15]; SF-539, read-out: Growth percent rate
  activity at 10 µM: 73.1%
[16]; Homo sapiens
  activity at 10 µM: 60.6%
[17]; SNB-19, read-out: Growth percent rate
  activity at 10 µM: 47.4%
[18]; DU-145, read-out: Growth percent rate
  activity at 10 µM: 71.6%
[19]; HOP-62, read-out: Growth percent rate
  activity at 10 µM: 86.1%
[20]; HL-60, read-out: Growth percent rate
  activity at 10 µM: 42.6%
[21]; K562, read-out: Growth percent rate
  activity at 10 µM: 43.8%
[22]; A498, read-out: Growth percent rate
  activity at 10 µM: 78.7%
[23]; UACC-257, read-out: Growth percent rate
  activity at 10 µM: 80.6%
[24]; M14, read-out: Growth percent rate
  activity at 10 µM: 67.2%
[25]; RPMI-8226, read-out: Growth percent rate
  activity at 10 µM: 17.4%
[26]; CAKI-1, read-out: Growth percent rate
  activity at 10 µM: 33%
[27]; A549, read-out: Growth percent rate
  activity at 10 µM: 54.1%
[28]
  activity at 10 µM: 64.6%
[29]; MCF7, read-out: Growth percent rate
  activity at 10 µM: 32.6%
[30]
  activity at 10 µM: 67.3%
[31]; RXF 393, read-out: Growth percent rate
  activity at 10 µM: 41%
[32]; Malme-3M
  activity at 10 µM: 73.3%
[33]; KM12, read-out: Growth percent rate
  activity at 10 µM: 83%
[34]; SF-295, read-out: Growth percent rate
  activity at 10 µM: 75.4%
[35]; OVCAR-4, read-out: Growth percent rate
  activity at 10 µM: 63.1%
[36]; SNB-75, read-out: Growth percent rate
  activity at 10 µM: 20.3%
[37]; HCT-15, read-out: Growth percent rate
  activity at 10 µM: 49.7%
[38]; NCI-H23, read-out: Growth percent rate
  activity at 10 µM: 73.1%
[39]; IGROV-1, read-out: Growth percent rate
  activity at 10 µM: 71.3%
[40]; OVCAR-8, read-out: Growth percent rate
  activity at 10 µM: 72%
[41]; COLO 205, read-out: Growth percent rate
  activity at 10 µM: 56.5%

## CCC12C=CCN3CCC4(c5cc(NC(=O)CN6CCN(C(c7ccc(F)cc7)c7ccc(F)cc7)CC6)c(OC)cc5N(C)C4C(O)(C(=O)OC)C1OC(C)=O)C32 (centres unmarked) [Compound 20]
[1]; 10 μM, SW-620, Colon Cancer, read-out: Growth percent rate
  activity at 10 µM: 34.2%
[2]; HT-29, 10 μM, HT29, Colon Cancer, read-out: Growth percent rate
  activity at 10 µM: -40.8%
[3]; 10 μM, SF-268, CNS Cancer, read-out: Growth percent rate
  activity at 10 µM: 28.1%
[4]; 10 μM, SK-MEL-2, Melanoma, read-out: Growth percent rate
  activity at 10 µM: -34.7%
[5]; 10 μM, 786-0, Renal Cancer, read-out: Growth percent rate
  activity at 10 µM: 34%
[6]; 10 μM, SK-MEL-5, Melanoma, read-out: Growth percent rate
  activity at 10 µM: -76.2%
[7]; 10 μM, NCI-H460, Non-small Cell Lung Cancer, read-out: Growth percent rate
  activity at 10 µM: 17.3%
[8]; 10 μM, SK-MEL-28, Melanoma, read-out: Growth percent rate
  activity at 10 µM: 51.2%
[9]; 10 μM, MOLT-4, Leukemia, read-out: Growth percent rate
  activity at 10 µM: 1.17%
[10]; 10 μM, TK-10, Renal Cancer, read-out: Growth percent rate
  activity at 10 µM: 37.6%
[11]; 10 μM, Leukemia
  activity at 10 µM: -18.9%
[12]; 10 μM, MDA-MB-435, Melanoma, read-out: Growth percent rate
  activity at 10 µM: 22.2%
[13]; U-251, 10 μM, U251, CNS Cancer, read-out: Growth percent rate
  activity at 10 µM: 31.7%
[14]; 10 μM, Melanoma
  activity at 10 µM: -61%
[15]; 10 μM, SF-539, CNS Cancer, read-out: Growth percent rate
  activity at 10 µM: -61.1%
[16]; 10 μM one-dose, NCI60
  antiproliferative effect (in words): moderate antiproliferative activity on some colon, CNS, and melanoma cell lines
[16]; 10 μM, mean over 60 human cancer cell lines
  activity at 10 µM: 12.2%
[17]; 10 μM, SNB-19, CNS Cancer, read-out: Growth percent rate
  activity at 10 µM: 21.5%
[18]; 10 μM, DU-145, Prostate Cancer, read-out: Growth percent rate
  activity at 10 µM: 37.1%
[19]; 10 μM, HOP-62, Non-small Cell Lung Cancer, read-out: Growth percent rate
  activity at 10 µM: 60.3%
[20]; 10 μM, HL-60(TB), Leukemia, read-out: Growth percent rate
  activity at 10 µM: -10.8%
[21]; K562, 10 μM, K-562, Leukemia, read-out: Growth percent rate
  activity at 10 µM: 17%
[22]; 10 μM, A498, Renal Cancer, read-out: Growth percent rate
  activity at 10 µM: 35.6%
[23]; 10 μM, UACC-257, Melanoma, read-out: Growth percent rate
  activity at 10 µM: 37.9%
[24]; 10 μM, M14, Melanoma, read-out: Growth percent rate
  activity at 10 µM: 49.7%
[25]; 10 μM, RPMI-8226, Leukemia, read-out: Growth percent rate
  activity at 10 µM: -2.68%
[26]; 10 μM, CAKI-1, Renal Cancer, read-out: Growth percent rate
  activity at 10 µM: 27.7%
[27]; 10 μM, A549/ATCC, Non-small Cell Lung Cancer, read-out: Growth percent rate
  activity at 10 µM: 31%
[28]; 10 μM, Non-small Cell Lung Cancer
  activity at 10 µM: 42.8%
[29]; 10 μM, MCF7, Breast Cancer, read-out: Growth percent rate
  activity at 10 µM: 5.47%
[30]; 10 μM, Renal Cancer
  activity at 10 µM: 11.4%
[31]; 10 μM, RXF 393, Renal Cancer, read-out: Growth percent rate
  activity at 10 µM: -44%
[32]; 10 μM, MALME-3M, Melanoma
  activity at 10 µM: 0%
[33]; 10 μM, KM12, Colon Cancer, read-out: Growth percent rate
  activity at 10 µM: 20.2%
[34]; 10 μM, SF-295, CNS Cancer, read-out: Growth percent rate
  activity at 10 µM: 13.8%
[35]; 10 μM, OVCAR-4, Ovarian Cancer, read-out: Growth percent rate
  activity at 10 µM: 31.4%
[36]; 10 μM, SNB-75, CNS Cancer, read-out: Growth percent rate
  activity at 10 µM: -60.5%
[37]; 10 μM, HCT-15, Colon Cancer, read-out: Growth percent rate
  activity at 10 µM: 18.3%
[38]; 10 μM, NCI-H23, Non-small Cell Lung Cancer, read-out: Growth percent rate
  activity at 10 µM: 38%
[39]; IGROV-1, 10 μM, IGROV1, Ovarian Cancer, read-out: Growth percent rate
  activity at 10 µM: 44.9%
[40]; 10 μM, OVCAR-8, Ovarian Cancer, read-out: Growth percent rate
  activity at 10 µM: 45.6%
[41]; 10 μM, COLO 205, Colon Cancer, read-out: Growth percent rate
  activity at 10 µM: -60.5%
